Results as given in the NIST ThermoML archive (doi:10.1016/j.jct.2009.06.016).
Where “and” joins values, the source holds several entries; their conditions need not be identical. Equal values may be shown once.

Assay: xn = mol fraction of the nth substance listed
Conditions: 101 kPa, Liquid, Vibrating tube method

CCCOCC(C)O (centres undefined) [1-propoxy-2-propanol] + O
mass density
Conditions | 283.15 K | 288.15 K | 293.15 K
x1 = 0.001639 | 999.31 kg/m3 | 998.703 kg/m3 | 997.77 kg/m3
x1 = 0.003265 | 999.009 kg/m3 | 998.36 kg/m3 | 997.378 kg/m3
x1 = 0.01049 | 998.189 kg/m3 | 997.309 kg/m3 | 996.156 kg/m3
x1 = 0.01741 | 997.871 kg/m3 | 996.708 kg/m3 | 995.295 kg/m3
x1 = 0.02413 | 997.617 kg/m3 | 996.172 kg/m3 | 994.434 kg/m3
x1 = 0.02492 | 997.584 kg/m3 | 996.099 kg/m3 | 994.315 kg/m3
x1 = 0.03341 | 997.009 kg/m3 | 994.916 kg/m3 | 992.599 kg/m3
x1 = 0.0411 | 995.626 kg/m3 | 993.032 kg/m3 | 990.295 kg/m3
x1 = 0.04904 | 993.374 kg/m3 | 990.531 kg/m3 | 987.469 kg/m3
x1 = 0.05896 | 990.231 kg/m3 | 987.111 kg/m3 | 983.811 kg/m3
x1 = 0.06919 | 987.019 kg/m3 | 983.629 kg/m3 | 980.171 kg/m3
x1 = 0.07722 | 984.1 kg/m3 | 980.908 kg/m3 | 977.347 kg/m3
x1 = 0.08896 | 980.8 kg/m3 | 977.203 kg/m3 | 973.523 kg/m3
x1 = 0.09833 | 977.885 kg/m3 | 974.328 kg/m3 | 970.577 kg/m3
x1 = 0.1083 | 975.142 kg/m3 | 971.439 kg/m3 | 967.62 kg/m3
x1 = 0.1182 | 972.498 kg/m3 | 968.762 kg/m3 | 964.864 kg/m3
x1 = 0.1249 | 970.842 kg/m3 | 967.03 kg/m3 | 963.131 kg/m3
x1 = 0.1283 | 969.927 kg/m3 | 966.142 kg/m3 | 962.218 kg/m3
x1 = 0.1365 | 967.946 kg/m3 | 964.14 kg/m3 | 960.182 kg/m3
x1 = 0.1475 | 965.216 kg/m3 | 961.573 kg/m3 | 957.6 kg/m3
x1 = 0.1677 | 961.137 kg/m3 | 957.197 kg/m3 | 953.147 kg/m3
x1 = 0.1955 | 955.28 kg/m3 | 951.825 kg/m3 | 947.746 kg/m3
x1 = 0.2281 | 950.34 kg/m3 | 946.219 kg/m3 | 942.051 kg/m3
x1 = 0.2743 | 943.61 kg/m3 | 939.47 kg/m3 | 935.34 kg/m3
x1 = 0.3208 | 937.609 kg/m3 | 933.429 kg/m3 | 929.158 kg/m3
x1 = 0.3483 | 934.321 kg/m3 | 930.247 kg/m3 | 926.15 kg/m3
x1 = 0.3738 | 931.91 kg/m3 | 927.69 kg/m3 | 923.45 kg/m3
x1 = 0.4214 | 927.214 kg/m3 | 922.877 kg/m3 | 918.572 kg/m3
x1 = 0.4787 | 922.45 kg/m3 | 918.2 kg/m3 | 913.81 kg/m3
x1 = 0.5257 | 918.715 kg/m3 | 914.413 kg/m3 | 910.011 kg/m3
x1 = 0.548 | 916.854 kg/m3 | 912.761 kg/m3 | 908.503 kg/m3
x1 = 0.5771 | 915.29 kg/m3 | 910.9 kg/m3 | 906.52 kg/m3
x1 = 0.5977 | 913.887 kg/m3 | 909.422 kg/m3 | –
x1 = 0.6247 | 912.186 kg/m3 | 907.847 kg/m3 | –
x1 = 0.6264 | – | 907.647 kg/m3 | –
x1 = 0.6385 | 911.37 kg/m3 | 906.945 kg/m3 | –
x1 = 0.672 | 909.401 kg/m3 | 905.017 kg/m3 | –
x1 = 0.6758 | – | 904.871 kg/m3 | –
x1 = 0.6793 | 909.018 kg/m3 | 904.571 kg/m3 | –
x1 = 0.7192 | 906.894 kg/m3 | 902.407 kg/m3 | –
x1 = 0.7272 | 906.317 kg/m3 | 901.907 kg/m3 | –
x1 = 0.7448 | 905.495 kg/m3 | 901.061 kg/m3 | –
x1 = 0.7589 | 904.809 kg/m3 | 900.364 kg/m3 | –
x1 = 0.7682 | 903.977 kg/m3 | 899.934 kg/m3 | –
x1 = 0.7858 | 903.51 kg/m3 | 899.08 kg/m3 | –
x1 = 0.7981 | 902.909 kg/m3 | 898.495 kg/m3 | –
x1 = 0.8224 | 901.51 kg/m3 | 897.287 kg/m3 | –
x1 = 0.8398 | 901.029 kg/m3 | 896.637 kg/m3 | –
x1 = 0.8588 | 900.07 kg/m3 | 895.641 kg/m3 | –
x1 = 0.8792 | 898.865 kg/m3 | 894.921 kg/m3 | –
x1 = 0.8796 | 899.334 kg/m3 | 894.851 kg/m3 | –
x1 = 0.8993 | 898.371 kg/m3 | 893.936 kg/m3 | –
x1 = 0.9197 | 897.715 kg/m3 and 897.195 kg/m3 | 893.212 kg/m3 and 893.204 kg/m3 | –
x1 = 0.9388 | 896.775 kg/m3 | 892.326 kg/m3 | –
x1 = 0.9486 | 896.411 kg/m3 | 891.949 kg/m3 | –
x1 = 0.9609 | 895.933 kg/m3 | 891.451 kg/m3 | –
x1 = 0.9628 | 896.008 kg/m3 | 891.604 kg/m3 | –
x1 = 0.9716 | 895.539 kg/m3 | 891.059 kg/m3 | –
x1 = 0.9798 | 895.261 kg/m3 | 890.77 kg/m3 | –
x1 = 0.9818 | 895.15 kg/m3 | 890.664 kg/m3 | –
x1 = 0.9919 | 894.781 kg/m3 | 890.294 kg/m3 | –
x1 = 1 | 894.462 kg/m3 | 889.963 kg/m3 | –
